Measured values as given in ChEMBL document CHEMBL1155707, “New lipopeptides from the Caribbean cyanobacterium Lyngbya majuscula” (J Nat Prod, 2001).

Legend:
Assay type in all cases: functional, cell-based
P388 = assay: Cytotoxicity against mouse P388 cells
HT-29 = assay: Cytotoxicity against human HT-29 cells
A549 = assay: Cytotoxicity against human A549 cells
SK-MEL-28 = assay: Cytotoxicity against human SK-MEL-28 cells

Measured: IC50

C[C@@H](c1nccs1)N(C)C(=O)[C@H](C[C@H](C)C(Cl)(Cl)Cl)NC(=O)C[C@H](C)C(Cl)(Cl)Cl [PSEUDODYSIDENIN]
> 1 µg/mL: all assays above
